Measured values taken from US8263656B2 (Hoffmann-La Roche Inc., priority 2008, dated 2012).

Key:
[1] = biological target: T1, human CRTH2 (Homo sapiens, UniProt Q9Y5Y4); test: Human CRTH2 Receptor Binding Assay (whole cell, [3H]ramatroban competition); settings: CHO-K1 cells expressing human CRTH2 and G-alpha16; 20 nM [3H]ramatroban; 1 hour, room temperature
T1 construct: expressed in transfected cells
T1 sequence (Q9Y5Y4 1-395): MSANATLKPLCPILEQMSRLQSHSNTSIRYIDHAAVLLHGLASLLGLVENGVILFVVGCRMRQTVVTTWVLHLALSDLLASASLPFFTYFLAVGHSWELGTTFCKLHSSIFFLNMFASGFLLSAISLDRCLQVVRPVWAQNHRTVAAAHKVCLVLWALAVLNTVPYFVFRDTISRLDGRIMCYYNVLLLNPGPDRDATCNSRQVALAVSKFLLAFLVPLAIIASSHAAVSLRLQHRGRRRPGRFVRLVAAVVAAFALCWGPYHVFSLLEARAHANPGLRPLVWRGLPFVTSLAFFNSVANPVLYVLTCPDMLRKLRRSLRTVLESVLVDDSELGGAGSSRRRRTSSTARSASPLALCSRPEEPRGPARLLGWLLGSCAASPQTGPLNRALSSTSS
Procedure, shortened: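 CHO-K1 cells stably expressing human CRTH2 and G-alpha16 (1.5×10^5 cells) incubated 1 h at room temperature with 20 nM [3H]ramatroban in PBS, 10 mM MgCl2, 0.06% BSA, then filtered and counted. Non-specific binding defined with 10 μM 15(R)-15-methyl PGD2; IC50 from 7-concentration 4-parameter logistic fit of specific-binding inhibition.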

[2] = system: DK-PGD2-induced IL-13 production in T helper type 2 (Th2) cells; test: DK-PGD2-Induced IL-13 Production Assay in Th2 Cells; format: cell-based; settings: human Th2 cells, 500 nM DK-PGD2, 4 hrs at 37° C., ELISA; unit inferred; read-out: IC50 of inhibiting IL-13 production (values greater than 10)
Protocol: Inhibition of 13,14-dihydro-15-keto Prostaglandin D2 (DK-PGD2)-induced IL-13 production in T helper type 2 (Th2) cells was applied to evaluate compound cellular potency.
Cultures of Th2 cells were established from blood of healthy human volunteers according to the following procedure. Peripheral blood mononuclear cells (PBMC) were first isolated from 50 mL of fresh blood by Ficoll-Hypaque density gradient centrifugation, followed by CD4^+ cell purification using a CD4^+ T Cell Isolation Kit II (from Miltenyi Biotec Inc.). The CD4^+ T cells were then differentiated to Th2 cells by culturing the cells in X-VIVO 15® medium (from Cambrex BioScience Walkersville Inc.) containing 10% human AB serum (serum of blood type AB from Invitrogen Corporation), 50 U/mL of recombinant human interleukin-2 (rhIL-2) (from PeproTech Inc.) and 100 ng/mL of recombinant human interleukin-4 (rhIL-4) (from PeproTech Inc.) for 7 days. The Th2 cells were isolated using a CD294 (CRTH2) MicroBead Kit (from Miltenyi Biotec Inc.) and amplified in X-VIVO 15® medium containing 10% human AB serum and 50 U/mL of rhIL-2 for 2 to 5 weeks. In general, 70% to 80% of the Th2 cells used in the assay are CRTH2-positive when analyzed by fluorescence-activated cell sorting using the BM16 antibody (as previously described) conjugated to phycoerythrin (PE).
The spontaneous production of IL-13 by Th2 cells was determined in the absence of DK-PGD2 stimulation and the value was subtracted from that in the presence of each compound for percent inhibition and IC50 calculations.
The percent inhibition of interleukin 13 (IL-13) production for a compound at various concentrations was calculated according to the following formula, [1-(IL-13 production in the presence of compound)/(IL-13 production in the presence of 0.15% DMSO)]×100. The IC50 value, defined as the concentration of a compound that is required for 50% inhibition of IL-13 production, was calculated by fitting the percent inhibition data for 7 concentrations to a sigmoidal dose-response (4 parameter logistic) model in the XLfit® software Excel add-in program [ID Business Solutions Ltd., model 205, where F(x)=(A+(B−A)/(1+((C/x)^D)))].

Compound | IC50 [1] | IC50 [2]
CC(C)c1ccc2c(c1OCC(=O)O)CCCC2NS(=O)(=O)c1cc(C(F)(F)F)cc(C(F)(F)F)c1 (centres unmarked) [Example 1-2, [5-(3,5-Bis-trifluoromethyl-benzenesulfonyl-amino)-2-isopropyl-5,6,7,8-tetrahydro-naphthalen-1-yloxy]-acetic acid] | 195 nM | > 10000 nM
Cc1ccc2c(c1OCC(=O)O)CCCC2N(C)S(=O)(=O)c1cc(C(F)(F)F)cc(C(F)(F)F)c1 (centres unmarked) [Example 2-2, {5-[(3,5-Bis-trifluoromethyl-benzenesulfonyl)-methyl-amino]-2-methyl-5,6,7,8-tetrahydro-naphthalen-1-yloxy}-acetic acid] | 311 nM | > 10000 nM
CCc1ccc2c(c1OCC(=O)O)CCCC2N(C)S(=O)(=O)c1cc(C(F)(F)F)cc(C(F)(F)F)c1 (centres unmarked) [Example 2-3, {5-[(3,5-Bis-trifluoromethyl-benzenesulfonyl)-methyl-amino]-2-ethyl-5,6,7,8-tetrahydro-naphthalen-1-yloxy}-acetic acid] | 177 nM | > 10000 nM
CN(C1CCCc2c1cc(Cl)c(F)c2OCC(=O)O)S(=O)(=O)c1ccc(Cl)cc1Cl (centres unmarked) [Example 2-11, {3-Chloro-5-[(2,4-dichloro-benzenesulfonyl)-methyl-amino]-2-fluoro-5,6,7,8-tetrahydro-naphthalen-1-yloxy}-acetic acid] | 536 nM | > 10000 nM
CN(C1CCCc2c(OCC(=O)O)cc(F)cc21)S(=O)(=O)c1ccc(Cl)cc1Cl (centres unmarked) [Example 2-16] | 981 nM | > 10000 nM
CN(C1CCCc2c1cc(F)c(F)c2OCC(=O)O)S(=O)(=O)c1cc(F)cc(C(F)(F)F)c1 (centres unmarked) [Example 2-24, {2,3-Difluoro-5-[(3-fluoro-5-trifluoromethyl-benzenesulfonyl)-methyl-amino]-5,6,7,8-tetrahydro-naphthalen-1-yloxy}-acetic acid] | 380 nM | –
